The values below come from BindingDB's records for doi:10.7270/Q25B012X (Burnham Center For Chemical Genomics, 2012).

The assay deals with Protein Wnt-3a (Mus musculus, UniProt P27467).
Sequence of Protein Wnt-3a (P27467 whole entry): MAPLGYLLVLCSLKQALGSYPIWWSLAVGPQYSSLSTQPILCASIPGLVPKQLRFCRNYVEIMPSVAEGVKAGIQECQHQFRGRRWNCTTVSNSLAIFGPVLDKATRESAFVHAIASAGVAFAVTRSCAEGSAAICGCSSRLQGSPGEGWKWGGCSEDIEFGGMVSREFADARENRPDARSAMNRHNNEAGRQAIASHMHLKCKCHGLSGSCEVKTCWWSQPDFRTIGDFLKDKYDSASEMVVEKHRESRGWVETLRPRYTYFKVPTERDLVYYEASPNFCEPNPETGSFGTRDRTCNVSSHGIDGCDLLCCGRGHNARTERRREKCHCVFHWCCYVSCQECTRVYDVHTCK
Usually IC50 stands for the concentration that gives 50% inhibition. Compound `CC(C)(C)OC(=O)N1CCC(c2cc(-c3cccs3)n[nH]2)CC1` [4-(3-thiophen-2-yl-1H-pyrazol-5-yl)-1-piperidinecarboxylic acid tert-butyl ester] had an IC50 of more than 50 µM.
In turn, `COc1cc(C(=O)NC2CCN(C)CC2)ccc1Nc1ncc2c(n1)N(CCc1ccccc1)CCC(=O)N2C` [MLS002232307] came in with an IC50 of more than 50 µM.
`CC1=CC(C)C2(COC(c3ccc[n+](C)c3)OC2)C(C)C1` (centres undefined) [MLS000717774] returned an IC50 of more than 50 µM.
`COc1ccc(Nc2nc(N3CCOCC3)nc(N3CCOCC3)n2)c(OC)c1` [SMR000515822] returned an IC50 of more than 50 µM.
`CCc1cc(C(=O)NC2CCCN(Cc3ccccc3F)C2)n(C)n1` (centres undefined) [5-ethyl-N-[1-[(2-fluorophenyl)methyl]piperidin-3-yl]-2-methyl-pyrazole-3-carboxamide]: the IC50 was more than 50 µM.
As to `Cc1cccc(C)c1N=C(S)N(CCN1CCCCCC1)Cc1ccco1` [1-[2-(1-azepanyl)ethyl]-3-(2,6-dimethylphenyl)-1-(2-furanylmethyl)thiourea], the IC50 is more than 50 µM.
The value for `COc1cccc2nc3c(C(=O)NCCN(C)C)cccc3cc12` was more than 50 µM; that for `CCCCCCCNC1=CC(=O)CC(c2ccccc2)C1` (centres undefined) [SMR000203844] was more than 50 µM; that for `CN(C)CCn1c2ccccc2c2nc3ccc([N+](=O)[O-])cc3cc21` [N,N-dimethyl-2-(2-nitro-10-indolo[3,2-b]quinolinyl)ethanamine] was more than 50 µM.
`CC(C)(C)c1ccc(C(=O)NC(=S)Nc2ccc(N3CCOCC3)cc2)cc1` displayed an IC50 of more than 50 µM.
Consider `O=C(COC(=O)c1ccc2[nH]c3c(c2c1)CCCC3)Nc1ccccc1Cl` [[2-[(2-chlorophenyl)amino]-2-oxidanylidene-ethyl] 6,7,8,9-tetrahydro-5H-carbazole-3-carboxylate], for which the IC50 was more than 50 µM.
For `Cc1ccc(O)c(NC(=O)COc2cc(C)ccc2C)c1` [2-(2,5-dimethylphenoxy)-N-(2-hydroxy-5-methylphenyl)acetamide] the value was more than 50 µM; for `Clc1ccc(-[n+]2cc(-c3ccc(Br)cc3)n3c2CCCCC3)cc1` [MLS001029582], more than 50 µM; for `Cc1ccc(S(=O)(=O)N2CCN(C(=O)c3ccc(S(=O)(=O)N4CCCC4)cc3)CC2)cc1` [[4-(Pyrrolidine-1-sulfonyl)-phenyl]-[4-(toluene-4-sulfonyl)-piperazin-1-yl]-methanone], more than 50 µM.
The value for `COc1ccc(C(=O)C[n+]2cc(-c3ccc(OC)cc3)n3c2CCCC3)cc1` [MLS001018126] was more than 50 µM.
For `C=CCN1C(=O)C(=NNC(=S)Nc2cccc(C)c2)c2ccccc21` [1-(3-methylphenyl)-3-[(Z)-(2-oxidanylidene-1-prop-2-enyl-indol-3-ylidene)amino]thiourea] the value was 29.2 µM.
On to `COc1ccc(-c2c[n+](CC(=O)c3ccccc3)c3n2CCCCC3)cc1` [2-[3-(4-methoxyphenyl)-6,7,8,9-tetrahydro-5H-imidazo[1,2-a]azepin-1-ium-1-yl]-1-phenyl-ethanone;bromide], for which the IC50 is more than 50 µM.
In the case of `CCOc1ccc2[nH]c3c(N4CCN(C(=O)c5ccco5)CC4)ncnc3c2c1` [[4-(8-ethoxy-5H-pyrimido[5,4-b]indol-4-yl)-1-piperazinyl]-(2-furanyl)methanone], the IC50 is more than 50 µM.
For `O=C(Cc1csc(Nc2[nH]c(=S)nc3ccccc23)n1)NCCCN1CCN(c2ccccc2F)CC1` [SMR000310923], the IC50 was more than 50 µM.
The value for `CC(=O)c1c(C)[nH]c(C(=O)OCC(=O)Nc2sc3c(c2C#N)CCCC3)c1C` [SMR000249195] was more than 50 µM.
For `Cc1ccc(C)c(-c2csc(NC(=O)C3=COCCO3)n2)c1` [SMR000713303], the IC50 was more than 50 µM.
`CCn1c(CC=Nc2ccccc2)[n+](CC)c2ccc(Cl)cc21` [SMR000173759] displayed an IC50 of 26.3 µM.
In turn, `CCCCn1c(SCc2c(C)noc2C)nc2cc(S(N)(=O)=O)ccc21` [1-butyl-2-[(3,5-dimethyl-1,2-oxazol-4-yl)methylsulfanyl]benzimidazole-5-sulfonamide] came in with an IC50 of more than 50 µM.
For `O=C(Nc1cc(N2CCCCC2)ncn1)c1ccccc1` [N-[6-(1-piperidinyl)-4-pyrimidinyl]benzamide] the value was more than 50 µM; for `O=C1NC(=Cc2ccc(O)cc2)C(=O)C1=CNCc1ccccc1` [(3Z,5Z)-3-[(benzylamino)methylidene]-5-[(4-hydroxyphenyl)methylidene]pyrrolidine-2,4-dione], 7.28 µM; for `CCCCCCCOc1ccc(OC(=O)c2cccnc2)cc1` [(4-heptoxyphenyl) pyridine-3-carboxylate], more than 12.5 µM.
The value for `CC(N=Nc1ccc(Cl)nn1)c1ccccc1O` (centres undefined) [MLS001233678] was more than 50 µM.
With `COc1cc(C(=O)NC2CCN(C)CC2)ccc1Nc1ncc2c(n1)N(C1CCCCC1)CCC(=O)N2C` [SMR001307858], the IC50 is more than 50 µM.
With `Cc1ccc(-c2csc(NC(=O)c3c(C)noc3C)n2)s1`, the IC50 is more than 50 µM.
As to `CCOc1ccc(-c2nc(CSCC(=O)NCC3CCCO3)c(C)o2)cc1` (centres undefined) [SMR000635237], the IC50 was more than 50 µM.
`Cc1nc2ccccc2c2oc(C(=O)N3CCN(C4CCCCC4)CC3)cc12` [(4-cyclohexylpiperazin-1-yl)-(4-methylfuro[3,2-c]quinolin-2-yl)methanone] yielded an IC50 of more than 50 µM.
As to `O=c1c2ccccc2sc2c(CO)ccc(NCCN3CCCCC3)c12` [MLS002702047], the IC50 is more than 50 µM.
As for `CCOP(=O)(CCP(=O)(OCC)OCC)OCC` [MLS002702923], the IC50 amounted to 11.8 µM.
`COc1ccc(CN(C)C(=O)c2cccc(NC(=O)Cc3sc(N4CCCCC4)nc3O)c2)c(OC)c1` [MLS002180955] displayed an IC50 of 21.7 µM.
Compound `O=C(Nc1cc2c3c(c1)C1CCCC1CN3CC1CCCC21)c1ccc([N+](=O)[O-])cc1` (centres undefined) [MLS000324904] returned an IC50 of more than 12.5 µM.
As for `CCOc1ccc(-c2nc(CSCC(=O)NC3CC3)c(C)o2)cc1` [SMR000635235], the IC50 was more than 50 µM.
Compound `O=C(Nc1ccncc1)c1ccc(-c2ccccc2)cc1` [4-phenyl-N-(4-pyridyl)benzamide] displayed an IC50 of more than 50 µM.
`CC(=O)c1ccc(-[n+]2cc(-c3ccc(C(C)(C)C)cc3)n3c2SCCC3)cc1` [MLS001018012] yielded an IC50 of more than 50 µM.
The value for `CC(C)(C)[C@H]1COC(=O)[C@H](NC(=O)OCC2c3ccccc3-c3ccccc32)C/C=C\C[C@@H](CC(=O)N(CCO)Cc2ccccc2)C(=O)N1` [MLS002320431] was more than 12.5 µM; that for `CCCc1nc(SCC(=O)Nc2nnc(CC)s2)c2c(=O)n(C)c(=O)n(C)c2n1` [SMR000806028] was more than 50 µM.
Compound `O=C(C[n+]1cc(-c2ccccc2)n2c1CCCCC2)c1ccc(Cl)cc1` [1-[2-(4-Chloro-phenyl)-2-oxo-ethyl]-3-phenyl-6,7,8,9-tetrahydro-5H-imidazo[1,2-a]azepin-1-ium] had an IC50 of more than 50 µM.
The value for `CC(C)(C)C1CCC(OC(=O)C[N+]2(C)CCCCC2)CC1` (centres undefined) [SMR000306329] was more than 50 µM; that for `COCCNC(=O)CSCc1nc(-c2ccc(SC)cc2)oc1C` [MLS000089367] was more than 50 µM.
Regarding `Cc1cc(N=NCc2ccc(O)cc2O)nc(-n2nc(C)cc2C)n1` [(4E)-4-[[2-[2-(3,5-dimethylpyrazol-1-yl)-6-methyl-pyrimidin-4-yl]hydrazinyl]methylidene]-3-oxidanyl-cyclohexa-2,5-dien-1-one], the IC50 amounted to 41.3 µM.
